“Also recorded” adds a separate entry of the source.
Experiments:
[1] = test system: MCF-7 cells; assay: MTT cell viability assay, MCF-7; assay type: cell-based, human; conditions: 72 h treatment
Description: (§1) The antiproliferative activity of the synthesized compounds was evaluated by the 3-(4,5-dimethylthiazol-2-yl)-2,5-diphenyl tetrazolium bromide (MTT) cell viability assay. Two types of breast cancer cell lines—namely MCF-7, which has estrogen and progesterone receptors, and MDA-MB-231, which is triple negative—were used, in addition to a colon cancer cell line (HCT-116).
(§2) The target products 3a–o were evaluated for their antiproliferative activity using the MTT viability assay of the MCF-7, MDA-MB-231 and HCT-116 cell lines (in triplicate) on at least three independent occasions for the determination of the reported mean values.
(§3) The three human tumor cell lines MCF-7, MDA-MB-231 and HCT-116 were cultured in Dulbecco’s Modified Eagle’s Medium (DMEM) with 10% fetal bovine serum, 2 mM L-glutamine and 100 µg/mL penicillin/streptomycin. The cells were maintained at 37 °C in 5% CO2 in a humidified incubator. All of the cells were sub-cultured 3 times/week by trypsinization using TrypLE Express (1×).
(§4) In order to calculate the relative IC50 values, the antiproliferative effect of compounds 3a–o was tested in three cancer cell lines (MCF-7, MDA-MB-231, HCT-116) and normal epithelial embryonic kidney cells (HEK-293) using the MTT viability assay. The cells were seeded in 96-well plates at a density of 10 × 10^3 cells/mL, in a total volume of 200 µL per well. In total, 0.1% DMSO was used as a vehicle control. […] The culture medium was then removed, and the cells were washed with phosphate-buffered saline (PBS), and 100 µL MTT was added (for a final concentration of 5 mg/mL MTT). The cells were incubated for 4 h in darkness at 37 °C. Next, 200 µL DMSO was added to each well, and the cells were maintained at room temperature in darkness for 20 min. The absorbance was detected with a microplate reader at 570 nm. The results were expressed as a percentage of viability relative to the vehicle control (100%). The dose-response curves were plotted, and the IC50 values were obtained using Prism software (GraphPad Software, Inc., La Jolla, CA, USA). All of the experiments were repeated in three independent experiments.

[2] = test system: MDA-MB-231 cells; assay: MTT cell viability assay, MDA-MB-231; assay type: cell-based; conditions: Homo sapiens, 72 h treatment
Description: as §1, §2, §3, §4

[3] = Zebrafish embryo mortality/toxicity; assay type: in vivo; conditions: wild-type, in vivo; zebrafish embryos, overnight exposure, 0.5 to 1000 µM; mean of three biological replicates ± standard deviation
Description: (§5) The zebrafish embryos were obtained by natural pairwise breeding, and were treated essentially as described previously.
(§6) The compounds were dissolved in dimethylsulfoxide (DMSO) in order to prepare a stock concentration of 10 mM. The embryos treated with 0.10% DMSO (v/v) served as the negative controls.
(§7) The fish were kept following the national and international guidelines for the care and use of laboratory animals. The fertilized eggs were obtained by the natural pairwise breeding of adult fish. The approval of the Ethics Committee for the use and care of laboratory animals was not needed, as zebrafish larvae less than 5 days post fertilization were used.
(§8) A stock solution of 50 mM was prepared by dissolving the compounds in dimethyl sulfoxide (DMSO). At least 30 fertilized eggs were sorted and placed in 60-mm sterile glass Petri dishes. A serial dilution of the compounds was prepared by adding the required amount of the compound directly into 5 mL water, and the zebrafish embryos were then exposed to serial dilutions (0.5 to 1000 µM) of each compound overnight. The number of dead and living embryos were counted after the overnight exposure.

[4] = test system: zebrafish embryos; assay: Zebrafish embryo mortality/toxicity; assay type: in vivo; conditions: maximum concentration tested 1 mM, versus DMSO control
Description: as §5, §6, §7, §8

[5] = test system: zebrafish embryos; assay: Zebrafish embryo imaging (morphology, teratogenicity); assay type: in vivo; conditions: 1 mM, embryos at 48 hpf, versus untreated embryos
Source text: The treated embryos had cardiac edema, craniofacial defects, tail lesions, and a delay in embryonic development. These observations are consistent with the findings in the literature.
A Zeiss Observer D1 inverted microscope using Zeiss ZEN software was used to capture the images of the live zebrafish embryos.
Figure 6 Representative images of the zebrafish embryos 48 hpf (A) control or (B) treated.

[6] = test system: MCF-7 cells; assay: Cell cycle analysis by PI staining flow cytometry; assay type: cell-based, human; conditions: 2 µM, 48 h
Description: The mechanism underlying the growth-inhibitory effect of 3a was further examined. The effect of 3a on cell cycle events in MCF-7 cells, after incubation at 2 µM for 48 h, was analyzed by a DNA flow cytometry assay of propidium iodide (PI) staining (Figure 4A). Compound 3a induced a statistically significant arrest of MCF-7 cells in the G2/M stage (36.8%) compared to the untreated cell line (11.5%) (Figure 4B).
The MCF-7 cells were treated with compound 3a (2 µM) and incubated for 48 h. After trypsinization, the cells were collected and centrifuged at 800× g for 15 min. They were then fixed in ice-cold 70% ethanol overnight at −20 °C. The fixed cells were centrifuged at 800× g for 15 min and stained with 50 μg/mL PI, containing 50 μg/mL DNase-free RNase A, at 37 °C for 30 min. The DNA content of the cells (10,000 cells) was analyzed by flow cytometer at 488 nm, using a FACSCalibur flow cytometer (BD Biosciences, San Jose, CA, USA).
Figure 4 (A) Effect of compound 3a on the cell cycle and apoptosis in breast cancer MCF-7 cells. The cells were treated with either a vehicle (0.1% ethanol (v/v)) or 3a (2 µM) for 48 h. The cell cycle analysis was performed on histograms of gated counts per DNA area (FL2-A). (B) Quantitative analysis of 4N (G2/M), 2N (G0G1), >2N (S) and <2N (sub-G1). The DNA content was determined with CellQuest software. […]

## COC(=O)CNC(=O)CNc1nc(Nc2ccccc2)nc(N2CCOCC2)n1 [Compound 3a, Methyl (4-morpholino-6-(phenylamino)-1,3,5-triazin-2-yl) glycylglycinate]
[1]
  IC50: 0.82 ± 0.37 µM
[1]; Homo sapiens, MCF7, 72 h
  IC50: < 1 µM
[2]
  IC50: 9.36 ± 1.15 µM
[3]
  LC50: > 1000 µM
[4]
  toxicity / mortality in zebrafish embryos: did not show any toxicity; also recorded: same mortality ratio as the control
[5]
  embryonic abnormality or morphological difference in zebrafish embryo images: did not indicate any embryonic abnormality or morphological difference
[6]; control 3.7%
  cells in the sub-G1 phase: 17.3%
[6]; untreated 11.5%
  MCF-7 cells in the G2/M stage: 36.8%

Reference: paper PMC7926980, “The Antiproliferative and Apoptotic Effect of a Novel Synthesized S-Triazine Dipeptide Series, and Toxicity Screening in Zebrafish Embryos” (Molecules, 2021)
